Data on 39 compounds can be found in ChEMBL document CHEMBL6071137, “Synthesis and biological studies of 2-aminothiophene derivatives as positive allosteric modulators of glucagon-like peptide 1 receptor” (2024).

Calls of active or inactive are those of the source. The rule behind the calls is not given here.

The target in assay [1] is Glucagon-like peptide 1 receptor (Homo sapiens) (UniProt P43220). Kind of assay: Positive allosteric modulation of human GLP-1 receptor in HEK cells expressing luciferase2P assessed as cAMP level incubated for 4 hrs by luciferase based assay relative to GLP-1. Details: concentration or dose not given beside the values. The conditions noted are these: filed as positive allosteric modulator. Type of assay: functional, cell-based. (Cyclic AMP is a second messenger, typically raised through Gs and lowered through Gi signalling.)
Chain of Glucagon-like peptide 1 receptor (Homo sapiens) (P43220 whole entry): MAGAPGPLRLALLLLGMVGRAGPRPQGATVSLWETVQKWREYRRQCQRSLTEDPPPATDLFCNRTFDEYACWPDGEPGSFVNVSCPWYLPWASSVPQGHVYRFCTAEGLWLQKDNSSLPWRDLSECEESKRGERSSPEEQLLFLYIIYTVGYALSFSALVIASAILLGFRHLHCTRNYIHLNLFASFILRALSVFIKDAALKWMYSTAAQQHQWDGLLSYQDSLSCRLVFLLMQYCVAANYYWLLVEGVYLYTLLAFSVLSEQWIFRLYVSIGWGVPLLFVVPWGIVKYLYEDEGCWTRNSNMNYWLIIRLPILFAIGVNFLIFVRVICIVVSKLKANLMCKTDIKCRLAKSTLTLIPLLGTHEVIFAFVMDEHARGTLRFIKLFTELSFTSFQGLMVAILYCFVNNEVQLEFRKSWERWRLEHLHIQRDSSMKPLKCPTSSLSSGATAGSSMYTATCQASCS

Assay [2] has the same target. Briefly: Positive allosteric modulation of human GLP-1 receptor in HEK cells expressing luciferase2P assessed as fold increase in GLP-1R activity incubated for 4 hrs in presence of GLP-1 by luciferase based assay relative to GLP-1 alone. The conditions noted are these: filed as positive allosteric modulator. Type of assay: cell-based.
In a further assay the test system is INS1(832/13). Kind of assay: Induction of glucose dependent insulin secretion in rat INS-1 832/13 cells expressing GLP-1R at 5 uM starved for 2 hrs in KRB buffer followed by glucose addition and measured after 90 mins by ELISA. Type of assay: functional, cell-based. A general note: ELISA stands for enzyme-linked immunosorbent assay.
For assay [3], the target named is Glucagon-like peptide 1 receptor (Homo sapiens) (UniProt P43220). Kind of assay: Positive allosteric modulation of human GLP-1 receptor in HEK cells expressing luciferase2P incubated for 4 hrs in presence of 10 nM of GLP-1 by luciferase based assay. The conditions noted are these: filed as positive allosteric modulator, dose 0.78-100 µM. The format is cell-based.

For assay [4] the target is unchanged. Kind of assay: Positive allosteric modulation of human GLP-1 receptor in HEK cells expressing luciferase2P at 5 uM incubated for 4 hrs in presence of varying concentrations of GLP-1 by luciferase based assay. Type of assay: cell-based. The conditions noted are these: filed as positive allosteric modulator.
Assay [5] in a line: Induction of glucose dependent insulin secretion in rat INS-1 832/13 cells expressing GLP-1R assessed as fold increase at 5 uM starved for 2 hrs in KRB buffer followed by 16.7 mM of glucose addition and measured after 90 mins in presence of GLP-1 by ELISA. The format is functional, INS1(832/13). The conditions noted are these: 1.5 h.

Take `CCOC(=O)c1c(N)sc2c1CCC(C(C)(C)C)C2` (racemic): the Activity in assay [1] was 195%. In addition, in assay [2], the fold change (FC) was greater than 2.
`Cc1ccc(C(=O)c2c(N)sc3c2CCC(C)C3)cc1` (racemic): the Activity in assay [1] is 242%; in assay [3] it was “Dose-Dependent Effect”. Further, the result (in the assay on INS1(832/13); in assay [4]) was Active. For the same compound, the fold change (FC) in assay [2] and in assay [5] was greater than 2 throughout.
In the case of `CCOC(=O)c1c(N)sc2c1CCN(S(=O)(=O)C1CC1)C2`, the Activity in assay [1] was 106%. Further, the fold change (FC) in assay [2] is greater than 2.
Consider `CCOC(=O)c1c(N)sc2c1CCN(CC)C2`, for which the Activity in assay [1] was 94.3%. In addition, the fold change (FC) in assay [2] is greater than 2.
On to `CCOC(=O)c1c(N)sc2c1CCN(C(C)C)C2`, for which the Activity in assay [1] was found to be 82.2%. Also, the fold change (FC) in assay [2] is greater than 2.
On the same counts, the results for `CC(=O)N1CCc2c(sc(N)c2C(=O)c2ccc(Cl)cc2)C1` are 239% and greater than 2.
On the same counts, the results for `CCOC(=O)c1c(N)sc2c1C(C)CCC2` (racemic) are 82% and greater than 2.
On the same counts, the results for `Nc1sc2c(c1C(=O)c1ccc(Cl)cc1)CCOC2` are 177% and greater than 2.
For the compound `CCOC(=O)c1c(N)sc2c1CCN(C)C2`, in assay [1], the Activity was determined as 75.7%. Moreover, the fold change (FC) in assay [2] is greater than 2.
For `CCOC(=O)c1c(N)sc2c1CCN(C1CC1)C2`, in that order: 88.3% and greater than 2.
For `Nc1sc2c(c1C(=O)c1ccc(Cl)cc1)CCSC2`, in that order: 112% and greater than 2.
In the case of `CCOC(=O)N1CCc2c(sc(N)c2C(=O)c2ccccc2)C1`, the Activity in assay [1] was 233%; in assay [3], “Dose-Dependent Effect”. The result (in the assay on INS1(832/13); in assay [4]) was Active. In addition, the fold change (FC) in assay [2] and in assay [5] was greater than 2 throughout.
For the compound `CCOC(=O)c1c(N)sc2c1CCC(C(C)C)C2` (racemic), the Activity in assay [1] was found to be 247%. The fold change (FC) in assay [2] was greater than 2.
On the same counts, the results for `CCOC(=O)c1c(N)sc2c1CCC(C(F)(F)F)C2` (racemic) are 183% and greater than 2.
For `CCCC1CCc2c(sc(N)c2C(=O)OCC)C1` (racemic), in that order: 157% and greater than 2.
In the case of `Nc1sc2c(c1C(=O)c1ccccc1)CCN(S(=O)(=O)C1CC1)C2`, in assay [1], the Activity was determined as 131%. For the same compound, the fold change (FC) in assay [2] is greater than 2.
Turning to `CCN1CCc2c(sc(N)c2C(=O)c2ccc(C)cc2)C1`, the Activity in assay [1] was determined as 99.3%. Moreover, the fold change (FC) in assay [2] was greater than 2.
On the same counts, the results for `CS(=O)(=O)N1CCc2c(sc(N)c2C(=O)c2ccc(Cl)cc2)C1` are 142% and greater than 2.
For `CCOC(=O)c1c(N)sc2c1CCN(C(=O)OC(C)(C)C)C2`, in that order: 164% and greater than 2.
For `Cc1ccc(C(=O)c2c(N)sc3c2CCSC3)cc1`, in that order: 92.5% and greater than 2.
For the compound `CN1CCc2c(sc(N)c2C(=O)c2ccc(Cl)cc2)C1`, the Activity in assay [1] is 124%. Moreover, in assay [2], the fold change (FC) was greater than 2.
`CCOC(=O)c1c(N)sc2c1CCC(C)(C)C2`: the Activity in assay [1] worked out at 164%. Further, the fold change (FC) in assay [2] was greater than 2.
For the compound `CC1CCc2c(sc(N)c2C(=O)c2ccc(Cl)cc2)C1` (racemic), the Activity in assay [1] is 128%. Besides, the fold change (FC) in assay [2] is greater than 2.
On the same counts, the results for `CCOC(=O)c1c(N)sc2c1CC(C)(C)CC2` are 133% and greater than 2.
For `CCOC(=O)c1c(N)sc2c1CCN(C(=O)OCc1ccccc1)C2`, the Activity in assay [1] is 184%. In addition, the fold change (FC) in assay [2] is greater than 2.
Turning to `C=CCOC(=O)N1CCc2c(sc(N)c2C(=O)c2ccccc2)C1`, the figures for the Activity in assay [1] and in assay [3] were 247% and “Dose-Dependent Effect”, respectively. The result (in the assay on INS1(832/13); in assay [4]) was Active. Further, the fold change (FC) in assay [2] and in assay [5] was greater than 2 throughout.
As to `CCOC(=O)c1c(N)sc2c1CCC(C)C2` (racemic), the Activity in assay [1] stood at 159%. The fold change (FC) in assay [2] is greater than 2.
On the same counts, the results for `CCOC(=O)c1c(N)sc2c1CCOC2` are 86.5% and greater than 2.
On the same counts, the results for `CCOC(=O)c1c(N)sc2c1CCN(C(=O)OCC)C2` are 258% and greater than 2.
On the same counts, the results for `C=CCOC(=O)N1CCc2c(sc(N)c2C(=O)OCC)C1` are 232% and greater than 2.
Turning to `Nc1sc2c(c1C(=O)c1ccc(Cl)cc1)CCN(C(=O)OCc1ccccc1)C2`, the Activity in assay [1] was determined as 155%. In addition, the fold change (FC) in assay [2] was greater than 2.
Turning to `CC(=O)N1CCc2c(sc(N)c2C(=O)c2ccccc2)C1`, in assay [1], the Activity amounted to 231%. In addition, in assay [2], the fold change (FC) was greater than 2.
On the same counts, the results for `CCOC(=O)c1c(N)sc2c1CCN(C(C)=O)C2` are 147% and greater than 2.
As for `Cc1ccc(C(=O)c2c(N)sc3c2CCN(C(=O)OCc2ccccc2)C3)cc1`, the Activity in assay [1] was found to be 98.1%. In addition, the fold change (FC) in assay [2] was greater than 2.
`CCOC(=O)N1CCc2c(sc(N)c2C(=O)c2ccc(C)cc2)C1`: in assay [1], the Activity was found to be 98.1%. Moreover, the fold change (FC) in assay [2] was greater than 2.
On the same counts, the results for `Cc1ccc(C(=O)c2c(N)sc3c2CCOC3)cc1` are 118% and greater than 2.
On the same counts, the results for `CCOC(=O)N1CCc2c(sc(N)c2C(=O)c2ccc(Cl)cc2)C1` are 222% and greater than 2.
On the same counts, the results for `CC(=O)N1CCc2c(sc(N)c2C(=O)c2ccc(C)cc2)C1` are 196% and greater than 2.
Regarding `CCOC(=O)c1c(N)sc2c1CCSC2`, the Activity in assay [1] turned out to be 192%. Moreover, in assay [2], the fold change (FC) is greater than 2.
